In US20120220562A1, “Anti-Viral Compounds” (ABBOTT LABAORATORIES, priority 2011, published 2012):
pEC50: −log10 of the molar value.

Tested on: HCV 1b-Con1 replicon
Experiment: HCV 1b-Con1 replicon assay in the presence of 5% FBS
Assay type: cell-based
Conditions: Hepatitis C virus

Row | SMILES | pEC50
1 | COC(=O)N[C@H](C(=O)N1CCC[C@H]1c1nc2cc([C@H]3CC[C@H](c4cc5nc([C@@H]6CCCN6C(=O)[C@@H](NC(=O)OC)C(C)C)[nH]c5cc4F)N3c3cc(F)c(N4CCC5(CCc6ccccc65)CC4)c(F)c3)c(F)cc2[nH]1)C(C)C [Example 4.31, methyl {(2S)-1-[(2S)-2-{5-[(2R,5R)-1-[4-(2,3-dihydro-1′H-spiro[indene-1,4′-piperidin]-1′-yl)-3,5-difluorophenyl]-5-{6-fluoro-2-[(2S)-1-{(2S)-2-[(methoxycarbonyl)amino]-3-methylbutanoyl}pyrrolidin-2-yl]-1H-benzimidazol-5-yl}pyrrolidin-2-yl]-6-fluoro-1H-benzimidazol-2-yl}pyrrolidin-1-yl]-3-methyl-1-oxobutan-2-yl}carbamate] | > 10.00
2 | CCOC(=O)N[C@H](C(=O)N1CCC[C@H]1c1nc2cc([C@H]3CC[C@H](c4ccc5[nH]c([C@@H]6CCCN6C(=O)[C@@H](NC(=O)OCC)C(C)C)nc5c4)N3c3cc(F)c(N4CCC(c5ccccc5)CC4)c(F)c3)ccc2[nH]1)C(C)C [Example 3.34, ethyl {(2S)-1-[(2S)-2-{5-[(2R,5R)-1-[3,5-difluoro-4-(4-phenylpiperidin-1-yl)phenyl]-5-{2-[(2S)-1-{(2S)-2-[(ethoxycarbonyl)amino]-3-methylbutanoyl}pyrrolidin-2-yl]-1H-benzimidazol-5-yl}pyrrolidin-2-yl]-1H-benzimidazol-2-yl}pyrrolidin-1-yl]-3-methyl-1-oxobutan-2-yl}carbamate] | > 10.00
3 | COC(=O)N[C@H](C(=O)N1CCC[C@H]1c1nc2ccc([C@H]3CC[C@H](c4ccc5nc([C@@H]6CCCN6C(=O)[C@@H](NC(=O)OC)C(C)C)[nH]c5c4)N3c3cc(F)c(N4CCC(CCCc5ccccc5)CC4)c(F)c3)cc2[nH]1)C(C)C [Example 2.10, methyl {(2S)-1-[(2S)-2-{5-[(2R,5R)-1-{3,5-difluoro-4-[4-(3-phenylpropyl)piperidin-1-yl]phenyl}-5-{2-[(2S)-1-{(2S)-2-[(methoxycarbonyl)amino]-3-methylbutanoyl}pyrrolidin-2-yl]-1H-benzimidazol-5-yl}pyrrolidin-2-yl]-1H-benzimidazol-2-yl}pyrrolidin-1-yl]-3-methyl-1-oxobutan-2-yl}carbamate] | > 10.00
4 | COC(=O)N[C@H](C(=O)N1CCC[C@H]1c1nc2cc([C@H]3CC[C@H](c4cc5nc([C@@H]6CCCN6C(=O)[C@@H](NC(=O)OC)[C@@H](C)OC)[nH]c5cc4F)N3c3cc(F)c(N4CCN(c5ccc(C(F)(F)F)cc5)CC4)c(F)c3)c(F)cc2[nH]1)[C@@H](C)OC [Example 6.15, methyl {(2S,3R)-1-[(2S)-2-{5-[(2R,5R)-1-(3,5-difluoro-4-{4-[4-(trifluoromethyl)phenyl]piperazin-1-yl}phenyl)-5-(6-fluoro-2-{(2S)-1-[N-(methoxycarbonyl)-O-methyl-L-threonyl]pyrrolidin-2-yl}-1H-benzimidazol-5-yl)pyrrolidin-2-yl]-6-fluoro-1H-benzimidazol-2-yl}pyrrolidin-1-yl]-3-methoxy-1-oxobutan-2-yl}carbamate] | > 10.00
5 | COC(=O)N[C@H](C(=O)N1CCC[C@H]1c1nc2cc([C@H]3CC[C@H](c4cc5nc([C@@H]6CCCN6C(=O)[C@@H](NC(=O)OC)C6CCOCC6)[nH]c5cc4F)N3c3cc(F)c(N4CCC(c5ccccc5)CC4)c(F)c3)c(F)cc2[nH]1)C1CCOCC1 [Example 4.39, dimethyl ({(2R,5R)-1-[3,5-difluoro-4-(4-phenylpiperidin-1-yl)phenyl]pyrrolidine-2,5-diyl}bis{(6-fluoro-1H-benzimidazole-5,2-diyl)(2S)pyrrolidine-2,1-diyl[(1S)-2-oxo-1-(tetrahydro-2H-pyran-4-yl)ethane-2,1-diyl]})biscarbamate] | > 10.00
